Measurements published in PMC10518257 (Nature Cancer, 2023).
“And” between values parts separate entries of the source, which are not always exact repeats. Equal entries are not always repeated. Where two headings read alike, the source gives them in different places.

Key:
TT cells = experiment: Growth inhibition (alamarBlue, 96 h); type: cell-based, human; settings: for raw viability signal (Source Data Fig. 3b-c): replicate sets
Ba/F3-RET^M918T = experiment: Growth inhibition assay in Ba/F3 cells (CellTiter-Glo, 72 h); type: cell-based; settings: Mus musculus, BaF3, 72 h, read-out: GI50 value (Mean ± SD), Ba/F3-RET^M918T, CellTiter-Glo, 72 h
[1] = tested on: Ba/F3 cells expressing KIF5B–RET^G810S; experiment: as above; type: cell-based; settings: replicate Sets 1-3
[2] = tested on: Ba/F3 KIF5B–RET^WT allograft tumors; experiment: Subcutaneous allograft efficacy study; type: in vivo, BALB/c nude mice
TT cells (RET C634W) = experiment: Dose-response western blotting, EC50 for inhibition of protein phosphorylation; type: cell-based; settings: Homo sapiens
LC-2/ad cells = experiment: Growth inhibition (alamarBlue, 96 h); type: cell-based, human; settings: for raw viability signal (Source Data Fig. 3b-c): LC-2/Ad, replicate sets
[3] = tested on: Ba/F3 KIF5B–RET^G810R allograft tumors; experiment: Subcutaneous allograft efficacy study; type: in vivo, BALB/c nude mice; settings: in mm³ (unit assumed);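 note: mean tumor volume per dosing group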
[4] = tested on: phosphorylation of RET^G810R, RET^G810S and RET^G810C in Ba/F3 cells; experiment: Western blotting of RET phosphorylation in Ba/F3 KIF5B–RET cells; type: cell-based; settings: 1 h, western blot, 100 nM
LUAD-0087AS2 cells = experiment: Growth inhibition (alamarBlue, 96 h); type: cell-based, human; settings: for raw viability signal (Source Data Fig. 3b-c): LUAD-0087AS2, replicate sets
[5] = Animal weight of tumor-bearing mice; settings: Ba/F3-KIF5B::RET (Fig 8e)
[6] = Homo sapiens, 96 h, read-out: IC50 for Inhibition of Growth (95% CI)

COCc1ccc(NC(=O)c2c(C#CCN3CCOCC3)n(C3(C)CC3)c3ncnc(N)c23)cc1 [Vepafestinib, 4-amino-N-[4-(methoxymethyl)phenyl]-7-(1-methylcyclopropyl)-6-[3-(morpholin-4-yl)prop-1-yn-1-yl]-7H-pyrrolo[2,3-d]pyrimidine-5-carboxamide]
raw viability signal (Source Data Fig. 3b-c) (TT cells; 0.01 nM): 22992.9 and 26706 and 26833.9 and 13728.7 and 29403.6
raw viability signal (Source Data Fig. 3b-c) (TT cells; 0.1 nM): 22728 and 26400.4 and 33154.7 and 10987.6 and 26655.8
raw viability signal (Source Data Fig. 3b-c) (TT cells; 1 nM): 22046.8 and 26424.3 and 31146.9 and 10280.3 and 23063
raw viability signal (Source Data Fig. 3b-c) (TT cells; 10 nM): 18366.2 and 23539.3 and 23168.9 and 8667.42 and 19947.5
raw viability signal (Source Data Fig. 3b-c) (TT cells; 100 nM): 10434.7 and 14002.8 and 12336.3 and 4688.9 and 15375.8
raw viability signal (Source Data Fig. 3b-c) (TT cells; 1000 nM): 10759 and 11509.2 and 9437.03 and 4745.5 and 14900.8
raw viability signal (Source Data Fig. 3b-c) (TT cells; 10000 nM): 11538.8 and 12388.7 and 14343.9 and 2691.86 and 17063
IC50 (TT cells; [6]): 24 nM
GI50 (Ba/F3-RET^M918T): 1.94 ± 0.88 nM
GI50 ([1]; Ba/3-KIF5B-RET-G810S): 14.7 nM and 13.1 nM
GI50 ([1]; Mus musculus, BaF3, Ba/3-KIF5B-RET-G810S): 7.93 nM
Tumor Volume Mean ([2]; Ba/F3-KIF5B::RET, 50 mg/kg BID, Day 1, Ext. Data Fig. 9a): 153.20 mm3
Tumor Volume Mean ([2]; Ba/F3-KIF5B::RET, 50 mg/kg BID, Day 1, Ext. Data Fig. 9b): 219.73 mm3
Tumor Volume Mean ([2]; Ba/F3-KIF5B::RET, 50 mg/kg BID, Day 4, Ext. Data Fig. 9a): 87.32 mm3
Tumor Volume Mean ([2]; Ba/F3-KIF5B::RET, 50 mg/kg BID, Day 4, Ext. Data Fig. 9b): 116.10 mm3
Tumor Volume Mean ([2]; Ba/F3-KIF5B::RET, 50 mg/kg BID, Day 8, Ext. Data Fig. 9a): 98.53 mm3
Tumor Volume Mean ([2]; Ba/F3-KIF5B::RET, 50 mg/kg BID, Day 8, Ext. Data Fig. 9b): 190.23 mm3
Tumor Volume Mean ([2]; Ba/F3-KIF5B::RET, 50 mg/kg BID, Day 11, Ext. Data Fig. 9a): 80.59 mm3
Tumor Volume Mean ([2]; Ba/F3-KIF5B::RET, 50 mg/kg BID, Day 11, Ext. Data Fig. 9b): 68.61 mm3
Tumor Volume Mean ([2]; Ba/F3-KIF5B::RET, 50 mg/kg BID, Day 15, Ext. Data Fig. 9a): 80.54 mm3
Tumor Volume Mean ([2]; Ba/F3-KIF5B::RET, 50 mg/kg BID, Day 15, Ext. Data Fig. 9b): 131.30 mm3
Tumor Volume Mean ([2]; Fig. 7a Ba/F3-KIF5B::RET, 25 mg/kg BID, day 0, in mm³ (unit assumed)): 186.18
Tumor Volume Mean ([2]; Fig. 7a Ba/F3-KIF5B::RET, 25 mg/kg BID, day 4, in mm³ (unit assumed)): 191.92
Tumor Volume Mean ([2]; Fig. 7a Ba/F3-KIF5B::RET, 25 mg/kg BID, day 8, in mm³ (unit assumed)): 184.92
Tumor Volume Mean ([2]; Fig. 7a Ba/F3-KIF5B::RET, 25 mg/kg BID, day 11, in mm³ (unit assumed)): 174.38
Tumor Volume Mean ([2]; Fig. 7a Ba/F3-KIF5B::RET, 25 mg/kg BID, day 15, in mm³ (unit assumed)): 165.09
Tumor Volume Mean ([2]; Fig. 7a Ba/F3-KIF5B::RET, 50 mg/kg BID, day 0, in mm³ (unit assumed)): 187.80
Tumor Volume Mean ([2]; Fig. 7a Ba/F3-KIF5B::RET, 50 mg/kg BID, day 4, in mm³ (unit assumed)): 184.99
Tumor Volume Mean ([2]; Fig. 7a Ba/F3-KIF5B::RET, 50 mg/kg BID, day 8, in mm³ (unit assumed)): 148.12
Tumor Volume Mean ([2]; Fig. 7a Ba/F3-KIF5B::RET, 50 mg/kg BID, day 11, in mm³ (unit assumed)): 106.67
Tumor Volume Mean ([2]; Fig. 7a Ba/F3-KIF5B::RET, 50 mg/kg BID, day 15, in mm³ (unit assumed)): 83.29
EC50 (TT cells (RET C634W); read-out: EC50 for Inhibition of Protein Phosphorylation (95% CI), AKT S473, 2 h, densitometry): 2.4 nM
EC50 (TT cells (RET C634W); read-out: EC50 for Inhibition of Protein Phosphorylation (95% CI), ERK1/2 T202/Y204, 2 h, densitometry): 0.3 nM
EC50 (TT cells (RET C634W); read-out: EC50 for Inhibition of Protein Phosphorylation (95% CI), MEK1/2 S217/S221, 2 h, densitometry): 2.1 nM
EC50 (TT cells (RET C634W); read-out: EC50 for Inhibition of Protein Phosphorylation (95% CI), P70 RSK T421/S424, 2 h, densitometry): 1.1 nM
EC50 (TT cells (RET C634W); read-out: EC50 for Inhibition of Protein Phosphorylation (95% CI), RET Y905, 2 h, densitometry): 0.3 nM
EC50 (TT cells (RET C634W); read-out: EC50 for Inhibition of Protein Phosphorylation (95% CI), S6RP S235/S236, 2 h, densitometry): 0.7 nM
IC50 (LC-2/ad cells; Homo sapiens, LC-2-ad, 96 h, read-out: IC50 for Inhibition of Growth (95% CI)): 15 nM
raw viability signal (Source Data Fig. 3b-c) (LC-2/ad cells; 0.01 nM): 13380.1 and 23532.8
raw viability signal (Source Data Fig. 3b-c) (LC-2/ad cells; 0.1 nM): 13890.3 and 20497.1
raw viability signal (Source Data Fig. 3b-c) (LC-2/ad cells; 1 nM): 12571.5 and 21458.9
raw viability signal (Source Data Fig. 3b-c) (LC-2/ad cells; 10 nM): 6299.39 and 16710
raw viability signal (Source Data Fig. 3b-c) (LC-2/ad cells; 100 nM): 4794.24 and 3373.89
raw viability signal (Source Data Fig. 3b-c) (LC-2/ad cells; 1000 nM): 5340.72 and 2243.82
raw viability signal (Source Data Fig. 3b-c) (LC-2/ad cells; 10000 nM): 3810.66 and 1837.55
Tumor Volume Mean ([3]; Fig. 7c Ba/F3-KIF5B::RET G810R, vepafestinib 10 mg/kg BID, day 1): 153.82
Tumor Volume Mean ([3]; Fig. 7c Ba/F3-KIF5B::RET G810R, vepafestinib 10 mg/kg BID, day 4): 151.29
Tumor Volume Mean ([3]; Fig. 7c Ba/F3-KIF5B::RET G810R, vepafestinib 10 mg/kg BID, day 8): 262.19
Tumor Volume Mean ([3]; Fig. 7c Ba/F3-KIF5B::RET G810R, vepafestinib 10 mg/kg BID, day 11): 374.99
Tumor Volume Mean ([3]; Fig. 7c Ba/F3-KIF5B::RET G810R, vepafestinib 10 mg/kg BID, day 15): 551.42
Tumor Volume Mean ([3]; Fig. 7d Ba/F3-KIF5B::RET G810R, vepafestinib 50 mg/kg BID, day 1): 158.4
Tumor Volume Mean ([3]; Fig. 7d Ba/F3-KIF5B::RET G810R, vepafestinib 50 mg/kg BID, day 4): 122.1
Tumor Volume Mean ([3]; Fig. 7d Ba/F3-KIF5B::RET G810R, vepafestinib 50 mg/kg BID, day 8): 133.3
Tumor Volume Mean ([3]; Fig. 7d Ba/F3-KIF5B::RET G810R, vepafestinib 50 mg/kg BID, day 11): 139.6
Tumor Volume Mean ([3]; Fig. 7d Ba/F3-KIF5B::RET G810R, vepafestinib 50 mg/kg BID, day 15): 173.1
suppression of phosphorylation of RET^G810R, RET^G810S and RET^G810C [4]: near-complete inhibition
IC50 (LUAD-0087AS2 cells; [6]): 52 nM
raw viability signal (Source Data Fig. 3b-c) (LUAD-0087AS2 cells; 0.01 nM): 11228 and 14615.9 and 14016.7 and 14250.8
raw viability signal (Source Data Fig. 3b-c) (LUAD-0087AS2 cells; 0.1 nM): 11523.4 and 15236.1 and 13636.1 and 15169.5
raw viability signal (Source Data Fig. 3b-c) (LUAD-0087AS2 cells; 1 nM): 9899.07 and 15123.8 and 13931.5 and 14165.7
raw viability signal (Source Data Fig. 3b-c) (LUAD-0087AS2 cells; 10 nM): 10547.8 and 8202.29 and 13996.8 and 13713.3
raw viability signal (Source Data Fig. 3b-c) (LUAD-0087AS2 cells; 100 nM): 5765.45 and 5334.21 and 3421.1 and 4734.04
raw viability signal (Source Data Fig. 3b-c) (LUAD-0087AS2 cells; 1000 nM): 2843.25 and 5162.03 and 1552.19 and 1343.68
raw viability signal (Source Data Fig. 3b-c) (LUAD-0087AS2 cells; 10000 nM): 1385.86 and 3882.23 and 977.192 and 943.954
Animal Weight, Mean ([5]; 25 mg/kg BID, day 0): 25.1 g
Animal Weight, Mean ([5]; 25 mg/kg BID, day 4): 27.6 g
Animal Weight, Mean ([5]; 25 mg/kg BID, day 8): 27.2 g
Animal Weight, Mean ([5]; 25 mg/kg BID, day 11): 27.1 g
Animal Weight, Mean ([5]; 25 mg/kg BID, day 15): 27.6 g
Animal Weight, Mean ([5]; 50 mg/kg BID, day 0): 25.4 g
Animal Weight, Mean ([5]; 50 mg/kg BID, day 4): 27.8 g
Animal Weight, Mean ([5]; 50 mg/kg BID, day 8): 26.3 g
